# Measurements as given in article PMC11882969 (Nature Communications, 2025).
# Several values for one entry are separate records, joined by “and”; a condition that tells them apart may be missing. Identical values can stand only once.
# Biological target: hCB1 (Homo sapiens, UniProt P21554)
# Assay: bioSensAll ebBRET signaling profiling, hCB1
# Assay type: cell-based
# Parameters: host or cells: HEK293SL cells, transient PEI transfection
# Conditions: for Gi1 hCB1 response: Gi1 biosensor; for Gi1 hCB1 / GoB hCB1: single replicate values, FigS6a
# [1] = Log [Compound] (M) -13, individual replicate values
# hCB1, sequence (P21554 whole entry): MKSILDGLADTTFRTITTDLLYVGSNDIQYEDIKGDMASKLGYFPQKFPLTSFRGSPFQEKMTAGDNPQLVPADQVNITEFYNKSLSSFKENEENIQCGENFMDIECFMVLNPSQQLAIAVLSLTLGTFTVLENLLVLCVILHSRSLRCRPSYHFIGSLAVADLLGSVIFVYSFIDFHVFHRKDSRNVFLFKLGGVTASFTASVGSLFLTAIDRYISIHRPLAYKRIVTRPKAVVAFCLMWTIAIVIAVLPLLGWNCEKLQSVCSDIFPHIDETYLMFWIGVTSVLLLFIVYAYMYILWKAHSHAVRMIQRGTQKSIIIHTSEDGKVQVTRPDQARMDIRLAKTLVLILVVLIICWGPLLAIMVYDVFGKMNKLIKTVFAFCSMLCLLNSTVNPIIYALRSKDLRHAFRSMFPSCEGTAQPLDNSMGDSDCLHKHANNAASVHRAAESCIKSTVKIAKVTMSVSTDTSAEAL
smiles,measurement,setting,value
"Cc1cc(C(=O)N2CC3(CCC3)[C@@H]2[C@H]2CCCO2)nn1-c1cccc(C(F)(F)F)c1 (single isomer, unassigned) [compound 430]",Gi1 hCB1 response,Log [Compound] (M) -4.22186,4.286
same,Gi1 hCB1 response,Log [Compound] (M) -4.63927,-17.6928
same,Gi1 hCB1 response,Log [Compound] (M) -5.05788,-21.811
same,Gi1 hCB1 response,Log [Compound] (M) -5.47381,-11.1127
same,Gi1 hCB1 response,Log [Compound] (M) -5.89285,-12.5003
same,Gi1 hCB1 response,Log [Compound] (M) -6.31878,-6.681
same,Gi1 hCB1 response,Log [Compound] (M) -6.72585,6.524
same,Gi1 hCB1 response,Log [Compound] (M) -7.14267,-2.6525
same,Gi1 hCB1 response,Log [Compound] (M) -7.55284,0.7047
same,Gi1 hCB1 response,Log [Compound] (M) -8,-4.174
same,Gi1 hCB1 response,Log [Compound] (M) -8.22186,0.4361
same,Gi1 hCB1 response,Log [Compound] (M) -8.39794,-4.779
same,Gi1 hCB1 response,Log [Compound] (M) -8.68787,4.89
same,Gi1 hCB1 response,Log [Compound] (M) -9.15521,-2.764
same,Gi1 hCB1 response,Log [Compound] (M) -9.61989,-2.876
same,Gi1 hCB1 response,Log [Compound] (M) -10.0969,-2.115
same,Gi1 hCB1 response,Log [Compound] (M) -10.5529,4.689
same,Gi1 hCB1 response,Log [Compound] (M) -11.0177,-4.667
same,Gi1 hCB1 response,Log [Compound] (M) -11.4949,-5.853
same,Gi1 hCB1 response,Log [Compound] (M) -11.9208,-0.9963
same,Gi1 hCB1 response,Log [Compound] (M) -12.3979,1.4433
same,Gi1 hCB1 response,Log [Compound] (M) -12.8861,-2.25
same,Gi1 hCB1 response,[1],4.375 and -8.248
same,Gi1 hCB1,Log [Compound] (M) -4.22186,3.789
same,GoB hCB1,Log [Compound] (M) -4.22186,6.14
same,Gi1 hCB1,Log [Compound] (M) -4.63927,-1.761
same,GoB hCB1,Log [Compound] (M) -4.63927,-3.176
same,Gi1 hCB1,Log [Compound] (M) -5.05788,-2.054
same,GoB hCB1,Log [Compound] (M) -5.05788,-0.4061
same,Gi1 hCB1,Log [Compound] (M) -5.47381,0.08902
same,GoB hCB1,Log [Compound] (M) -5.47381,1.896
same,Gi1 hCB1,Log [Compound] (M) -5.89285,0.7519
same,GoB hCB1,Log [Compound] (M) -5.89285,0.547
same,Gi1 hCB1,Log [Compound] (M) -6.31878,0.1815
same,GoB hCB1,Log [Compound] (M) -6.31878,1.86
same,Gi1 hCB1,Log [Compound] (M) -6.72585,1.1836
same,GoB hCB1,Log [Compound] (M) -6.72585,4.665
same,Gi1 hCB1,Log [Compound] (M) -7.14267,0.9678
same,GoB hCB1,Log [Compound] (M) -7.14267,2.363
same,Gi1 hCB1,Log [Compound] (M) -7.55284,0.274
same,GoB hCB1,Log [Compound] (M) -7.55284,5.3306
same,Gi1 hCB1,Log [Compound] (M) -8,0.5207
same,GoB hCB1,Log [Compound] (M) -8,3.155
same,Gi1 hCB1,Log [Compound] (M) -8.22186,0.08902
same,GoB hCB1,Log [Compound] (M) -8.22186,-0.8557
same,Gi1 hCB1,Log [Compound] (M) -8.39794,1.23
same,GoB hCB1,Log [Compound] (M) -8.39794,3.334
same,Gi1 hCB1,Log [Compound] (M) -8.68787,1.214
same,GoB hCB1,Log [Compound] (M) -8.68787,-1.521
same,Gi1 hCB1,Log [Compound] (M) -9.15521,1.245
same,GoB hCB1,Log [Compound] (M) -9.15521,-0.6579
same,Gi1 hCB1,Log [Compound] (M) -9.61989,2.463
same,GoB hCB1,Log [Compound] (M) -9.61989,0.4211
same,Gi1 hCB1,Log [Compound] (M) -10.0969,1.338
same,GoB hCB1,Log [Compound] (M) -10.0969,-1.125
same,Gi1 hCB1,Log [Compound] (M) -10.5529,0.1353
same,GoB hCB1,Log [Compound] (M) -10.5529,-0.9456
same,Gi1 hCB1,Log [Compound] (M) -11.0177,0.5053
same,GoB hCB1,Log [Compound] (M) -11.0177,3.37
same,Gi1 hCB1,Log [Compound] (M) -11.4949,0.5207
same,GoB hCB1,Log [Compound] (M) -11.4949,5.385
same,Gi1 hCB1,Log [Compound] (M) -11.9208,1.523
same,GoB hCB1,Log [Compound] (M) -11.9208,2.741
same,Gi1 hCB1,Log [Compound] (M) -12.3979,0.7674
same,GoB hCB1,Log [Compound] (M) -12.3979,3.263
same,Gi1 hCB1,Log [Compound] (M) -12.8861,0.2586
same,GoB hCB1,Log [Compound] (M) -12.8861,4.072
same,Gi1 hCB1,Log [Compound] (M) -13,1.954 and 3.465
same,GoB hCB1,Log [Compound] (M) -13,3.838 and 3.119
Cc1cc(C(=O)N2CC3(CCC3)[C@@H]2[C@@H]2CCCO2)nn1-c1cccc(C(F)(F)F)c1 [‘3386],Gi1 hCB1 response,Log [Compound] (M) -4.22186,-31.6589
same,Gi1 hCB1 response,Log [Compound] (M) -4.63927,-26.0187
same,Gi1 hCB1 response,Log [Compound] (M) -5.47381,-11.5379
same,Gi1 hCB1 response,Log [Compound] (M) -5.89285,-4.6
same,Gi1 hCB1 response,Log [Compound] (M) -6.31878,6.86
same,Gi1 hCB1 response,Log [Compound] (M) -6.72585,-4.577
same,Gi1 hCB1 response,Log [Compound] (M) -7.14267,-3.682
same,Gi1 hCB1 response,Log [Compound] (M) -7.55284,0.369
same,Gi1 hCB1 response,Log [Compound] (M) -8,-1.959
same,Gi1 hCB1 response,Log [Compound] (M) -8.22186,-1.847
same,Gi1 hCB1 response,Log [Compound] (M) -8.39794,6.792
same,Gi1 hCB1 response,Log [Compound] (M) -8.68787,5.83
same,Gi1 hCB1 response,Log [Compound] (M) -9.15521,-6.435
same,Gi1 hCB1 response,Log [Compound] (M) -9.61989,5.561
same,Gi1 hCB1 response,Log [Compound] (M) -10.0969,-3.167
same,Gi1 hCB1 response,Log [Compound] (M) -10.5529,5.808
same,Gi1 hCB1 response,Log [Compound] (M) -11.0177,14.3798
same,Gi1 hCB1 response,Log [Compound] (M) -11.4949,4.331
same,Gi1 hCB1 response,Log [Compound] (M) -11.9208,0.6376
same,Gi1 hCB1 response,Log [Compound] (M) -12.3979,3.01
same,Gi1 hCB1 response,Log [Compound] (M) -12.8861,17.2222
same,Gi1 hCB1 response,[1],0.5257 and -2.921
same,Gi1 hCB1,Log [Compound] (M) -4.22186,-5.415
same,GoB hCB1,Log [Compound] (M) -4.22186,-7.725
same,Gi1 hCB1,Log [Compound] (M) -4.63927,-6.833
same,GoB hCB1,Log [Compound] (M) -4.63927,-8.211
same,Gi1 hCB1,Log [Compound] (M) -5.05788,-4.3047
same,GoB hCB1,Log [Compound] (M) -5.05788,-5.316
same,Gi1 hCB1,Log [Compound] (M) -5.47381,-2.408
same,GoB hCB1,Log [Compound] (M) -5.47381,-3.409
same,Gi1 hCB1,Log [Compound] (M) -5.89285,-1.499
same,GoB hCB1,Log [Compound] (M) -5.89285,-1.485
same,Gi1 hCB1,Log [Compound] (M) -6.31878,1.292
same,GoB hCB1,Log [Compound] (M) -6.31878,2.327
same,Gi1 hCB1,Log [Compound] (M) -6.72585,0.5361
same,GoB hCB1,Log [Compound] (M) -6.72585,1.033
same,Gi1 hCB1,Log [Compound] (M) -7.14267,0.4282
same,GoB hCB1,Log [Compound] (M) -7.14267,0.7269
same,Gi1 hCB1,Log [Compound] (M) -7.55284,0.9215
same,GoB hCB1,Log [Compound] (M) -7.55284,3.892
same,Gi1 hCB1,Log [Compound] (M) -8,0.7057
same,GoB hCB1,Log [Compound] (M) -8,1.158
same,Gi1 hCB1,Log [Compound] (M) -8.22186,1.7386
same,GoB hCB1,Log [Compound] (M) -8.22186,-4.075
same,Gi1 hCB1,Log [Compound] (M) -8.39794,-1.406
same,GoB hCB1,Log [Compound] (M) -8.39794,4.1437
same,Gi1 hCB1,Log [Compound] (M) -8.68787,1.2761
same,GoB hCB1,Log [Compound] (M) -8.68787,-1.251
same,Gi1 hCB1,Log [Compound] (M) -9.15521,1.261
same,GoB hCB1,Log [Compound] (M) -9.15521,-3.967
same,Gi1 hCB1,Log [Compound] (M) -9.61989,1.816
same,GoB hCB1,Log [Compound] (M) -9.61989,-0.8377
same,Gi1 hCB1,Log [Compound] (M) -10.0969,0.3511
same,GoB hCB1,Log [Compound] (M) -10.0969,1.158
same,Gi1 hCB1,Log [Compound] (M) -10.5529,1.014
same,GoB hCB1,Log [Compound] (M) -10.5529,1.536
same,Gi1 hCB1,Log [Compound] (M) -11.0177,0.7982
same,GoB hCB1,Log [Compound] (M) -11.0177,0.4571
same,Gi1 hCB1,Log [Compound] (M) -11.4949,1.029
same,GoB hCB1,Log [Compound] (M) -11.4949,2.058
same,Gi1 hCB1,Log [Compound] (M) -11.9208,-0.1422
same,GoB hCB1,Log [Compound] (M) -11.9208,1.68
same,Gi1 hCB1,Log [Compound] (M) -12.3979,0.5053
same,GoB hCB1,Log [Compound] (M) -12.3979,2.184
same,Gi1 hCB1,Log [Compound] (M) -12.8861,-0.04972
same,GoB hCB1,Log [Compound] (M) -12.8861,1.176
same,Gi1 hCB1,Log [Compound] (M) -13,2.124 and 3.311
same,GoB hCB1,Log [Compound] (M) -13,2.399 and 2.327
